Assay results published in paper PMC10267570, “Characterization of the cholesterol biosynthetic pathway in Dioscorea transversa” (The Journal of Biological Chemistry, 2023).

Target: T1, CYP51Dt (D. transversa sterol 14α-demethylase)
T1 construct: gene CYP51; C-terminal hexa-histidine tag
Assay: UV–visible difference spectroscopy titration (type I spectrum) of purified P450; also turnover with CPRDt/NADPH by GC–MS
Type: binding, Dioscorea transversa

| Compound | Kd |
| --- | --- |
| C=C(CC[C@@H](C)[C@H]1CC[C@@]2(C)C3=C(CC[C@]12C)[C@@]1(C)CC[C@H](O)[C@@H](C)[C@@H]1CC3)C(C)C [compound 7, obtusifoliol] | 800 ± 250 nM |
| CC(C)CCC[C@@H](C)[C@H]1CC[C@@]2(C)C3=C(CC[C@]12C)[C@@]1(C)CC[C@H](O)[C@@H](C)[C@@H]1CC3 [compound 19, 4-desmethyl-24,25-dihydrolanosterol] | 2400 ± 180 nM |
